Reference: patent US20230255930A1, “METHOD OF INCREASING THE POPULATION OF COPROCOCCUS SPP. IN THE GUT MICROBIOME” (priority 2020, published 2023)

What was measured:
Coprococcus [1] = assay: In vitro intestinal batch fermentation with human fecal suspension; 16S rRNA Illumina sequencing; format: cell-based; details: fermentation supernatant at 24 h, versus control
Protocol: At the start of this intestinal batch fermentation incubation, all test ingredients were added from stock solutions to the modified nutritional medium, containing (g/l): 2.5 K2HPO4, 10.9 KH2PO4, 2 NaHCO3, 2 yeast extract, 2 peptone, 1 mucin, 0.5 cysteine, 2 Tween 80, 2 glucose, 2 starch, 2 cellobiose, 0.1 NaCl, 0.01 MgSO4.7H2O, 0.01 CaCl2.6H2O, 0.05 hemin, 0.5 bile salts.
The following compounds were added from stock solutions prepared in water: • Beta-carotene, • Vitamin B3, • Vitamin B5, • Vitamin B7, • Fructooligosaccharides Fructooligosaccharides are included as a positive control.
As a source of the microbial community, freshly prepared fecal suspension from a human donor was added to the reactors. […] All tests, except the blanks, were performed in single repetition. Incubation conditions were 48 h at 37° C., under shaking (90 rpm) and anaerobic conditions.
Microbial composition: Illumina sequencing was performed at the start and after 24 h of incubation. The technique targets the16S rRNA gene that consists of variable and conserved regions, spread over the gene. Due to their key role in protein expression, the conserved regions are characterized by very low evolutionary rates.
The methodology applied involves primers that span 2 hypervariable regions (V3-V4) of the 16S rRNA gene. Using a pair-end sequencing approach, sequencing of 2×250 bp results in 424 bp amplicons. Such fragments are taxonomically more informative as compared to smaller fragments. In brief, mothur (v. 1.42.0) was used to assemble reads into contigs, perform alignment-based quality filtering (alignment to the mothur-reconstructed SILVA SEED alignment, v. 123), remove chimeras, assign taxonomy using a naïve Bayesian classifier and SILVA NR v132 and cluster contigs into OTUs. All sequences classified as Eukaryota, Archaea, Chloroplasts and Mitochondria were removed, as well as sequences that could not be classified. For each OTU, representative sequences were selected as the most abundant sequence within that OTU.

Coprococcus [2] = assay: Clinical study of colon-targeted vitamins; fecal relative abundance of Coprococcus by shotgun metagenomics; format: in vivo; details: human feces, colon-targeted delivery for four weeks, compared to baseline
Text: Twelve participants were allocated to each of the six vitamin groups, and 24 participants allocated to the placebo group. […] To be considered eligible for enrolment into the study, participants have to be able to give written informed consent; be aged between 20 and 50 years of age; have a BMI of between 18.5 - 30 Kg/m2; have a stable body weight (< 5% change) over the past 3-months; be in generally good health, as determined by the investigator; have not consumed dietary supplements, prebiotic, probiotic, dietary or fiber-rich supplements within 4 weeks prior to baseline visit and be willing to avoid these supplements until the end of the study; be willing to avoid liver consumption for the duration for the study, be willing to maintain their current level of physical activity for the duration of the study; and be willing to consume the IP daily for the duration of the study. Any participants who have a typical fiber intake >30 g/day; were pregnant or planning to become pregnant, have consumed disallowed medications; had made major dietary changes over the past three months or had planned major lifestyle changes; had taken part in a study within the previous 60 days; or had any ongoing or previous illness that the investigator deemed would impact on the objectives of the study were excluded. […] Each subject provided written informed consent before inclusion in the study.
At the final visit (Visit 3) participants retuned a fecal samples collected in the previous 48 hours. […] Participants returned their IP and compliance was assessed. […]

Coprococcus comes = assay: Clinical study of colon-targeted vitamins; fecal relative abundance of Coprococcus comes by shotgun metagenomics; format: in vivo; details: human feces, colon-targeted delivery for four weeks
Text: Twelve participants were allocated to each of the six vitamin groups, and 24 participants allocated to the placebo group. All 96 participants completed the intervention. To be considered eligible for enrolment into the study, participants have to be able to give written informed consent; be aged between 20 and 50 years of age; have a BMI of between 18.5 - 30 Kg/m2; have a stable body weight (< 5% change) over the past 3-months; be in generally good health, as determined by the investigator; have not consumed dietary supplements, prebiotic, probiotic, dietary or fiber-rich supplements within 4 weeks prior to baseline visit and be willing to avoid these supplements until the end of the study; be willing to avoid liver consumption for the duration for the study, be willing to maintain their current level of physical activity for the duration of the study; and be willing to consume the IP daily for the duration of the study. […]
The trial was a randomized, double-blind, placebo-controlled, parallel study in which subjects received either the vitamin supplement or placebo over four weeks. […] Before the randomization visit, participants food frequency questionnaires were analyzed to ensure their typical fiber intake is <30 g fiber/day. […]
At the baseline visit (Visit 2), participants retuned a fecal samples collected in the previous 48 hours and eligibility was assessed. […]

CC1=C(/C=C/C(C)=C/C=C/C(C)=C/C=C/C=C(C)/C=C/C=C(C)/C=C/C2=C(C)CCCC2(C)C)C(C)(C)CCC1 [beta-carotene, β-carotene]
Coprococcus relative abundance (Coprococcus [1]; dose 1x): increased | Coprococcus relative abundance (Coprococcus [1]; dose 5x): increased

NC(=O)c1cccnc1 [vitamin B3, Niacinamide]
Coprococcus relative abundance (Coprococcus [1]; doses 0.2x, 1x, 5x tested): no distinct increase

CC(C)(CO)[C@@H](O)C(=O)NCCC(=O)O [vitamin B5, Pantothenic acid]
Coprococcus relative abundance (Coprococcus [1]; dose 0.2x): increased | Coprococcus relative abundance (Coprococcus [1]; dose 5x): increased

O=C(O)CCCC[C@@H]1SC[C@@H]2NC(=O)N[C@@H]21 [vitamin B7, Biotin]
Coprococcus relative abundance (Coprococcus [1]; doses 0.2x, 1x, 5x tested): no distinct increase

O=C1O[C@H]([C@@H](O)CO)C(O)=C1O [vitamin C, ascorbic acid]
relative abundance of Coprococcus (Coprococcus [2]): not

C=C1CC[C@H](O)C/C1=C/C=C1\CCC[C@]2(C)[C@@H]([C@H](C)CCCC(C)C)CC[C@@H]12 [vitamin D3, cholecalciferol]
Coprococcus comes relative abundance (Coprococcus comes; compared to baseline (p = 0.04)): significant increase | Coprococcus comes relative abundance (Coprococcus comes; compared to placebo group (p = 0.028)): significant increase | relative abundance of Coprococcus (Coprococcus [2]): trends for an increase

vitamin A
relative abundance of Coprococcus (Coprococcus [2]): trends for an increase
